# From PubChem BioAssay AID248 (DTP/NCI, 2004)
# “And” between values parts separate entries of the source, which are not always exact repeats. Equal values may be shown once. Inconclusive results and toxic doses are left out.
# Test system: L1210 leukemia ip in BDF1 mice, survival T/C
# Test: NCI In Vivo Anticancer Drug Screen. Data for tumor model L1210 Leukemia (intraperitoneal) in B6D2F1 (BDF1) mice
# Details: endpoint: mean survival time, higher = longer survival
# In short: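 In this screen, tumor-bearing mice given compound are compared to those given vehicle, and their survival values are reported as a treated-to-control quotient.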
compound,measurement,setting,value
O=NN(CCF)C(=O)NC1CCCCC1,T/C,"dose: 0.33 mg/kg/injection, schedule: Q#B X003 (ip), vehicle: other",109 % of control
same,T/C,"dose: 0.66 mg/kg/injection, schedule: Q#B X003 (ip), vehicle: other",119 % of control
same,T/C,"dose: 0.93 mg/kg/injection, schedule: Q01DX001 (ip), vehicle: carboxymethylcellulose (CMC)",102 % of control
same,T/C,"dose: 1.33 mg/kg/injection, schedule: Q#B X003 (ip), vehicle: other",121 % of control
same,T/C,"dose: 1.56 mg/kg/injection, schedule: Q03HX032 (ip), vehicle: carboxymethylcellulose (CMC)",111 % of control
same,T/C,"dose: 1.87 mg/kg/injection, schedule: Q01DX001 (ip), vehicle: carboxymethylcellulose (CMC)",102 % of control
same,T/C,"dose: 2.97 mg/kg/injection, schedule: Q01DX015 (ip), vehicle: other",96 % of control and 117 % of control
same,T/C,"dose: 3.12 mg/kg/injection, schedule: Q01DX001 (sc), vehicle: other",122 % of control
same,T/C,"dose: 3.12 mg/kg/injection, schedule: Q03HX008 (ip), vehicle: carboxymethylcellulose (CMC)",188 % of control
same,T/C,"dose: 3.12 mg/kg/injection, schedule: Q03HX032 (ip), vehicle: carboxymethylcellulose (CMC)",416 % of control
same,T/C,"dose: 3.12 mg/kg/injection, schedule: Q03HX032 (oral), vehicle: carboxymethylcellulose (CMC)",177 % of control
same,T/C,"dose: 3.75 mg/kg/injection, schedule: Q01DX001 (ip), vehicle: carboxymethylcellulose (CMC)",112 % of control
same,T/C,"dose: 5.0 mg/kg/injection, schedule: Q01DX001 (ip), vehicle: carboxymethylcellulose (CMC)",108 % of control
same,T/C,"dose: 6.0 mg/kg/injection, schedule: Q02DX008 (ip), vehicle: other",157 % of control and 160 % of control
same,T/C,"dose: 6.25 mg/kg/injection, schedule: Q01DX001 (sc), vehicle: other",117 % of control
same,T/C,"dose: 6.25 mg/kg/injection, schedule: Q01DX013 (ip), vehicle: carboxymethylcellulose (CMC)",122 % of control
same,T/C,"dose: 6.25 mg/kg/injection, schedule: Q03HX008 (oral), vehicle: carboxymethylcellulose (CMC)",605 % of control
same,T/C,"dose: 6.25 mg/kg/injection, schedule: Q03HX032 (oral), vehicle: carboxymethylcellulose (CMC)",288 % of control
same,T/C,"dose: 6.25 mg/kg/injection, schedule: Q## X006 (ip), vehicle: carboxymethylcellulose (CMC)",111 % of control
same,T/C,"dose: 6.25 mg/kg/injection, schedule: Q## X006 (oral), vehicle: carboxymethylcellulose (CMC)",305 % of control
same,T/C,"dose: 6.75 mg/kg/injection, schedule: Q01DX015 (ip), vehicle: other",448 % of control and 489 % of control
same,T/C,"dose: 9.0 mg/kg/injection, schedule: Q02DX008 (ip), vehicle: other",345 % of control and 397 % of control
same,T/C,"dose: 10.0 mg/kg/injection, schedule: Q01DX015 (ip), vehicle: other",424 % of control and 524 % of control
same,T/C,"dose: 12.0 mg/kg/injection, schedule: Q## X004 (ip), vehicle: other",370 % of control and 608 % of control
same,T/C,"dose: 12.5 mg/kg/injection, schedule: Q01DX001 (ip), vehicle: carboxymethylcellulose (CMC)",183 % of control
same,T/C,"dose: 12.5 mg/kg/injection, schedule: Q01DX001 (sc), vehicle: other",157 % of control
same,T/C,"dose: 12.5 mg/kg/injection, schedule: Q01DX013 (ip), vehicle: carboxymethylcellulose (CMC)",183 % of control
same,T/C,"dose: 12.5 mg/kg/injection, schedule: Q03HX032 (oral), vehicle: carboxymethylcellulose (CMC)",255 % of control
same,T/C,"dose: 12.5 mg/kg/injection, schedule: Q## X006 (ip), vehicle: carboxymethylcellulose (CMC)",155 % of control
same,T/C,"dose: 13.5 mg/kg/injection, schedule: Q01DX001 (ip), vehicle: other",187 % of control
same,T/C,"dose: 13.5 mg/kg/injection, schedule: Q01DX001 (oral), vehicle: other",178 % of control and 183 % of control
same,T/C,"dose: 13.5 mg/kg/injection, schedule: Q02DX008 (ip), vehicle: other",456 % of control and 470 % of control
same,T/C,"dose: 13.5 mg/kg/injection, schedule: Q## X001 (ip), vehicle: other",247 % of control
same,T/C,"dose: 13.5 mg/kg/injection, schedule: Q## X001 (oral), vehicle: other",253 % of control
same,T/C,"dose: 14.0 mg/kg/injection, schedule: Q## X032 (ip), vehicle: other",341 % of control
same,T/C,"dose: 15.0 mg/kg/injection, schedule: Q01DX001 (ip), vehicle: carboxymethylcellulose (CMC)",174 % of control
same,T/C,"dose: 15.0 mg/kg/injection, schedule: Q01DX015 (ip), vehicle: other",158 % of control and 438 % of control
same,T/C,"dose: 16.2 mg/kg/injection, schedule: Q01DX001 (ip), vehicle: other",314 % of control
same,T/C,"dose: 18.0 mg/kg/injection, schedule: Q## X004 (ip), vehicle: other",601 % of control and 682 % of control
same,T/C,"dose: 20.0 mg/kg/injection, schedule: Q01DX001 (ip), vehicle: carboxymethylcellulose (CMC)",250 % of control
same,T/C,"dose: 20.0 mg/kg/injection, schedule: Q02DX008 (ip), vehicle: other",380 % of control and 649 % of control
same,T/C,"dose: 22.0 mg/kg/injection, schedule: Q## X032 (ip), vehicle: other",240 % of control
same,T/C,"dose: 23.0 mg/kg/injection, schedule: Q01DX001 (ip), vehicle: other",238 % of control
same,T/C,"dose: 25.0 mg/kg/injection, schedule: Q01DX001 (ip), vehicle: carboxymethylcellulose (CMC)",192 % of control
same,T/C,"dose: 25.0 mg/kg/injection, schedule: Q01DX001 (oral), vehicle: carboxymethylcellulose (CMC)",616 % of control and 733 % of control
same,T/C,"dose: 25.0 mg/kg/injection, schedule: Q01DX001 (sc), vehicle: carboxymethylcellulose (CMC)",216 % of control
same,T/C,"dose: 25.0 mg/kg/injection, schedule: Q01DX001 (sc), vehicle: other",317 % of control
same,T/C,"dose: 25.0 mg/kg/injection, schedule: Q01DX005 (oral), vehicle: carboxymethylcellulose (CMC)",344 % of control
same,T/C,"dose: 25.0 mg/kg/injection, schedule: Q## X006 (ip), vehicle: carboxymethylcellulose (CMC)",733 % of control
same,T/C,"dose: 25.0 mg/kg/injection, schedule: Q## X006 (oral), vehicle: carboxymethylcellulose (CMC)",355 % of control
same,T/C,"dose: 27.0 mg/kg/injection, schedule: Q01DX001 (ip), vehicle: other",241 % of control and 302 % of control
same,T/C,"dose: 27.0 mg/kg/injection, schedule: Q01DX001 (oral), vehicle: other",264 % of control and 289 % of control
same,T/C,"dose: 27.0 mg/kg/injection, schedule: Q## X001 (ip), vehicle: other",447 % of control
same,T/C,"dose: 27.0 mg/kg/injection, schedule: Q## X001 (oral), vehicle: other",280 % of control and 426 % of control
same,T/C,"dose: 27.0 mg/kg/injection, schedule: Q## X004 (ip), vehicle: other",412 % of control and 594 % of control
same,T/C,"dose: 30.0 mg/kg/injection, schedule: Q01DX001 (ip), vehicle: carboxymethylcellulose (CMC)",322 % of control
same,T/C,"dose: 30.0 mg/kg/injection, schedule: Q02DX008 (ip), vehicle: other",153 % of control and 256 % of control
same,T/C,"dose: 32.0 mg/kg/injection, schedule: Q## X032 (ip), vehicle: other",105 % of control
same,T/C,"dose: 36.0 mg/kg/injection, schedule: Q01DX001 (ip), vehicle: other",529 % of control
same,T/C,"dose: 40.0 mg/kg/injection, schedule: Q## X004 (ip), vehicle: other",209 % of control and 600 % of control
same,T/C,"dose: 41.0 mg/kg/injection, schedule: Q## X001 (oral), vehicle: other",383 % of control
same,T/C,"dose: 45.0 mg/kg/injection, schedule: Q01DX001 (ip), vehicle: carboxymethylcellulose (CMC)",344 % of control
same,T/C,"dose: 48.0 mg/kg/injection, schedule: Q## X032 (ip), vehicle: other",114 % of control and 120 % of control
same,T/C,"dose: 50.0 mg/kg/injection, schedule: Q01DX001 (oral), vehicle: carboxymethylcellulose (CMC)",716 % of control
same,T/C,"dose: 50.0 mg/kg/injection, schedule: Q01DX001 (sc), vehicle: carboxymethylcellulose (CMC)",733 % of control
same,T/C,"dose: 50.0 mg/kg/injection, schedule: Q01DX005 (oral), vehicle: carboxymethylcellulose (CMC)",200 % of control
same,T/C,"dose: 50.0 mg/kg/injection, schedule: Q04DX004 (ip), vehicle: carboxymethylcellulose (CMC)",183 % of control
same,T/C,"dose: 50.0 mg/kg/injection, schedule: Q04DX004 (oral), vehicle: carboxymethylcellulose (CMC)",205 % of control
same,T/C,"dose: 50.0 mg/kg/injection, schedule: Q## X006 (ip), vehicle: carboxymethylcellulose (CMC)",733 % of control
same,T/C,"dose: 50.0 mg/kg/injection, schedule: Q## X006 (oral), vehicle: carboxymethylcellulose (CMC)",116 % of control
same,T/C,"dose: 54.0 mg/kg/injection, schedule: Q01DX001 (ip), vehicle: carboxymethylcellulose (CMC)",282 % of control
same,T/C,"dose: 54.0 mg/kg/injection, schedule: Q01DX001 (oral), vehicle: other",352 % of control
same,T/C,"dose: 54.0 mg/kg/injection, schedule: Q## X001 (ip), vehicle: other",421 % of control
same,T/C,"dose: 54.0 mg/kg/injection, schedule: Q## X001 (oral), vehicle: other",226 % of control
same,T/C,"dose: 60.0 mg/kg/injection, schedule: Q## X004 (ip), vehicle: other",200 % of control
same,T/C,"dose: 67.0 mg/kg/injection, schedule: Q01DX001 (ip), vehicle: carboxymethylcellulose (CMC)",289 % of control
same,T/C,"dose: 100.0 mg/kg/injection, schedule: Q01DX001 (oral), vehicle: carboxymethylcellulose (CMC)",166 % of control and 244 % of control
same,T/C,"dose: 100.0 mg/kg/injection, schedule: Q04DX004 (oral), vehicle: carboxymethylcellulose (CMC)",122 % of control
same,T/C,"dose: 200.0 mg/kg/injection, schedule: Q01DX001 (oral), vehicle: carboxymethylcellulose (CMC)",155 % of control
